Source: patent US7396812B2, “Method for modulating Nod1 activity, use of a MTP related molecule for modulating Nod1 activity, and therapeutic applications thereof” (Institut Pasteur, priority 2003, dated 2008)
Entries after “also recorded” stand apart in the source; their conditions may differ.

Assays:
Nod2 [1] = biological target: T1, Nod2 (Homo sapiens, UniProt Q9HC29); test: Nod2-dependent activation of NF-κB; type: cell-based; settings: equivalent amounts (10 ng) of muropeptide
T1 construct: expressed in transfected cells
Protocol: (§1) Studies examining the activation of NF-κB by LPS, lipid A, lipoproteins or the purified PGNs in cells over-expressing Nod1 were carried out as described by Inohara et al. (N. Inohara et al., 2001). Briefly, HEK293 cells were transfected overnight with 10 ng of Nod1. At the same time, the LPS, lipoproteins or peptidoglycan preparations were added and the NF-κB-dependent luciferase activation was then measured following 24 h of co-incubation.
(§2) NF-κB-dependent luciferase assays were performed in duplicate and data represent at least 3 independent experiments.
In FIG. 2A, PGN muropeptides from N. meningitidis were separated by reverse-phase HPLC and subsequently analysed by mass spectroscopy (see supporting on-line text). N.D.(a), not determined for this particular HPLC fractionation, but found to be O-acetylated dimeric GM-tetrapeptide in subsequent HPLC fractionation and mass spectroscopy analyses. […] N.D.(b), fraction unknown. […] FIG. 2C is a schematic representation of N. meningitidis PGN detailing the Nod1-active motif from fraction 3 (GM-tripeptide) as determined by mass spectroscopy. In FIG. 2D, equivalent amounts (10 ng) of GM-dipeptide (GM-di; synthetic source), GM-tripeptide (GMtri), or GM-tetrapeptide (GM-tetra) were tested for stimulation of Nod1-, Nod2- or TLR2-dependent activation of NF-κB. […]

Nod1 [2] = biological target: T2, Nod1 (Homo sapiens, UniProt Q9Y239); test: Nod1-dependent NF-κB-luciferase activation in Nod1-overexpressing HEK293 cells; type: cell-based; design: expressed in transfected cells; host or cells: HEK293; settings: for activation of Nod1 by HPLC muropeptide fractions: N. meningitidis PGN muropeptide fractions, 1% of the volume of each fraction; for stimulation of the Nod1 pathway (NF-κB activation): LPS, lipid A, lipoprotein preparations, 10 μg (10 μg/ml in b180); for detection by Nod1 (Nod1-dependent activation of NF-κB): equivalent amounts (10 ng) of muropeptide
T2 sequence (Q9Y239 1-953): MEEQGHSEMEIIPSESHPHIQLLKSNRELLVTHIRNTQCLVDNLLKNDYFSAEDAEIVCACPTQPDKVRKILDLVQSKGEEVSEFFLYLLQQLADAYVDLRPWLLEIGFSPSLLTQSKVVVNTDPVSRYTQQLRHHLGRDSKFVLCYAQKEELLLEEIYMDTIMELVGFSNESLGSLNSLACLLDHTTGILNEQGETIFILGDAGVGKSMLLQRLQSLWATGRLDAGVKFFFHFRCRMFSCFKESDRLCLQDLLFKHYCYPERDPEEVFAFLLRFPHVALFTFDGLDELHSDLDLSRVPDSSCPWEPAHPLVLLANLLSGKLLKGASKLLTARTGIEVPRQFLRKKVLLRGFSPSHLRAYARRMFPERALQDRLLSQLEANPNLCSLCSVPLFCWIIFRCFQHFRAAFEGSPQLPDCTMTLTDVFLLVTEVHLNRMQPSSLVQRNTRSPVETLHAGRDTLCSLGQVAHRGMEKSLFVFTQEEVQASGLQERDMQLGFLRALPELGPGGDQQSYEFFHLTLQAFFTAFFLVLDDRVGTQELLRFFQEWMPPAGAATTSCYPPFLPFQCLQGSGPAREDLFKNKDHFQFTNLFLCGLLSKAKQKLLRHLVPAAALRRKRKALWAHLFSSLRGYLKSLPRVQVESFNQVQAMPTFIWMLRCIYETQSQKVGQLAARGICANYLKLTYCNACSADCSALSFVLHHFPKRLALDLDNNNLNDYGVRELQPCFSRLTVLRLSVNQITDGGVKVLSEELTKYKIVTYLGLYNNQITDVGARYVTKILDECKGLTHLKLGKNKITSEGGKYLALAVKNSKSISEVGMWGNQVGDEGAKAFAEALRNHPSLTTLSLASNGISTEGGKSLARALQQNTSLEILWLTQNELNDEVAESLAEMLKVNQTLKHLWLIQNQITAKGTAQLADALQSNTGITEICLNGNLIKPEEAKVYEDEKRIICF
Protocol: as §1, §2

Nod2 [3] = biological target: T1, Nod2; settings: previous findings, Girardin et al. 2003; Inohara et al. 2003; cited from earlier work
Nod1 [4] = biological target: T2, Nod1; test: Nod1-dependent IL-8 production in HeLa epithelial cells (ELISA); type: cell-based; design: expressed in transfected cells; settings: HeLa cells transfected with 10 ng Nod1 plus muropeptide, 18 h
Protocol: To measure Nod1-dependent IL-8 produced in epithelial cells by muropeptides, 5×10^5 HeLa cells were seeded into each well of a twelve well plate and transfected the following day with 10 ng Nod1 plus the individual muropeptides (as described above) or treated with IL-1 as a positive control. Eighteen hours later, supernatants were collected and assayed for IL-8 as previously described (D. J. Philpott et al., 2000) using an ELISA kit (R and D Systems).

[5] = tested on: NF-κB p65 in isolated intestinal epithelial cells; test: NF-κB p65 nuclear translocation in isolated intestinal epithelial cells from wild-type or Nod1-deficient mice; type: cell-based; settings: supernatants microinjected, TNFα 10 ng/ml
Protocol: At least 50 microinjected cells were examined per coverslip and experiments were performed at least 2 times independently with similar results.
Microinjection of Gram-negative but not Gram-positive bacterial supernatants activates NF-κB in isolated intestinal epithelial cells from wild-type mice, as observed by nuclear translocation of the p65 subunit of NF-κB (as described in FIG. 3B).

T1 sequence (Q9HC29 whole entry): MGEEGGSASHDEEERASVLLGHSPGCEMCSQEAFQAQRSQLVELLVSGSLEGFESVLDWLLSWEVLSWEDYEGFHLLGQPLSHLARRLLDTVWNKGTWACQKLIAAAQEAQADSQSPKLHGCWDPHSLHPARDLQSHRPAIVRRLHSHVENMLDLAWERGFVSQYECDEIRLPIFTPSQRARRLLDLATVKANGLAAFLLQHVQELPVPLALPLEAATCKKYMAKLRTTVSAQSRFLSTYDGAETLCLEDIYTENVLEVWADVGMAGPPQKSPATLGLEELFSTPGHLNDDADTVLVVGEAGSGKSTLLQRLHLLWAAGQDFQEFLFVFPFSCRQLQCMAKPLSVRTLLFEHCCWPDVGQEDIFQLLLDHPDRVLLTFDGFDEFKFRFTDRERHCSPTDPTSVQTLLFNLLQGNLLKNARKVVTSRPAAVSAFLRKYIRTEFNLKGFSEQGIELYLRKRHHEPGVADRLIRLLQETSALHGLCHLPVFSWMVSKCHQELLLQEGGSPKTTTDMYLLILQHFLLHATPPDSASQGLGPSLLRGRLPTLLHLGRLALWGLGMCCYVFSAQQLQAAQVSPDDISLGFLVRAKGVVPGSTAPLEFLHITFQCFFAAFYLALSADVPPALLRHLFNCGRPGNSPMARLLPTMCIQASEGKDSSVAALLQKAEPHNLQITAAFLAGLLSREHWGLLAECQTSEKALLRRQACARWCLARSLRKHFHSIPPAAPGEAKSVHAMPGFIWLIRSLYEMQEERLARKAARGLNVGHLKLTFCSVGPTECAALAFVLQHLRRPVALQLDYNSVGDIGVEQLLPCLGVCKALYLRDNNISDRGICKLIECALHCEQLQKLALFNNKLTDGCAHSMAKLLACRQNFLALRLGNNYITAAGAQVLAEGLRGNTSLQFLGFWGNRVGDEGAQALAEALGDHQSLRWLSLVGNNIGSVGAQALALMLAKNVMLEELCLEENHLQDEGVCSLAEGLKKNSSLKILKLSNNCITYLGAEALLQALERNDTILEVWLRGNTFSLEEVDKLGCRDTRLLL

CC(=O)N[C@H]1[C@H](O[C@H]2[C@H](O[C@H](C)C(=O)N[C@@H](C)C(=O)N[C@H](CCC(=O)O)C(N)=O)[C@@H](NC(C)=O)C(O)O[C@@H]2CO)O[C@H](CO)[C@@H](O)[C@@H]1O (stereo partly drawn) [GM-dipeptide]
detection by Nod2 (Nod2-dependent activation of NF-κB) (Nod2 [1]): detects

C[C@H](N)C(=O)N[C@H](CCC(=O)NC(CCCC(N)C(=O)O)C(=O)O)C(=O)O (stereo partly drawn) [tripeptide L-Ala-D-Glu-mesoDAP, L-Ala-D-Glu-mesoDAP]
detection by Nod1 of peptidoglycan structures (FIG. 8) (Nod1 [2]): able to sense

CC(=O)N[C@@H]1[C@@H](O[C@H](C)C(=O)N[C@@H](C)C(=O)N[C@H](CCC(=O)O)C(N)=O)[C@H](O)[C@@H](CO)O[C@H]1O [M-dipeptide]
recognition by Nod2 (Nod2 [3]): recognizes

GlcNAc-MurNAc-L-Ala-D-Glu-mesoDAP(GlcNAc-MurNAc-L-Ala-D-Glu-mesoDAP-D-Ala)-D-Ala [dimeric GM-tetrapeptide]
activation of Nod1 by HPLC muropeptide fractions (Nod1 [2]): does not activate Nod1

CC(=O)NC1C(O)OC(CO)C(O)C1OC(C)C(=O)NC(C)C(=O)NC(CCC(=O)NC(CCCC(N)C(=O)O)C(=O)O)C(=O)O (stereo not drawn) [MurTriDAP]
detection by Nod1 of peptidoglycan structures (FIG. 8) (Nod1 [2]): detects

Pam3Cys-Ser-Lys4-OH [synthetic lipopeptide]
stimulation of the Nod1 pathway (NF-κB activation) (Nod1 [2]): not possible to stimulate the Nod1 pathway
stimulation of the Nod1 pathway (NF-κB activation) (Nod1 [2]; listed as lipopeptide): fail to activate the Nod1 pathway

CC(=O)N[C@H]1[C@@H](OP(=O)(O)OP(=O)(O)OC[C@H]2O[C@@H](n3ccc(=O)[nH]c3=O)[C@H](O)[C@@H]2O)O[C@H](CO)[C@@H](O)[C@@H]1O[C@H](C)C(=O)N[C@@H](C)C(=O)N[C@H](CCC(=O)N[C@@H](CCC[C@@H](N)C(=O)O)C(=O)O)C(=O)O [UDP-MurTriDAP]
detection by Nod1 of peptidoglycan structures (FIG. 8) (Nod1 [2]): detects

GlcNAc-MurNAc-L-Ala-D-Glu-mesoDAP-DAla [GM-tetrapeptide]
detection by Nod1 (Nod1-dependent activation of NF-κB) (Nod1 [2]): not sensed by Nod1

GlcNAc-anhydro-MurNAc-L-Ala-D-GlumesoDAP [anhydrous GM-tripeptide]
activation of Nod1 by HPLC muropeptide fractions (Nod1 [2]): active molecule in fraction 17

GlcNAc-MurNAc-L-Ala-D-Glu-mesoDAP [GM-tripeptide]
detection by Nod1 of peptidoglycan structures (FIG. 8) (Nod1 [2]): detects
activation of Nod1 by HPLC muropeptide fractions (Nod1 [2]; listed as fraction 3): activates Nod1; also recorded: able to activate Nod1
detection by Nod1 (Nod1-dependent activation of NF-κB) (Nod1 [2]): specifically detects
production of IL-8 (Nod1 [4]): production of the pro-inflammatory chemokine, IL-8; also recorded: leads to the production

Lpp: the most abundant lipoprotein in E. coli (lipidated)
stimulation of the Nod1 pathway (NF-κB activation) (Nod1 [2]): fail to activate the Nod1 pathway; also recorded: not possible to stimulate the Nod1 pathway

TNFα
NF-κB nuclear translocation in Nod1-deficient cells [5]: can efficiently stimulate NF-κB nuclear translocation

lipid A
stimulation of the Nod1 pathway (NF-κB activation) (Nod1 [2]): could not stimulate the Nod1 pathway

C[C@H](N)C(=O)N[C@H](CCC(=O)NC(CCCC(N)C(=O)O)C(=O)O)C(=O)O (stereo partly drawn) [TriDAP]
detection by Nod1 of peptidoglycan structures (FIG. 8) (Nod1 [2]): detects
